Laboratory results: US8846627B2, “Method for treatment of malaria” (The Second Military Medical University, priority 2009, dated 2014)

Test system: chloroquine sensitive (D6) strain of P. falciparum
Assay: In vitro anti-malarial activity assay (plasmodial LDH activity), D6 clone
Assay type: cell-based
Details: Plasmodium falciparum, D6; 72 h incubation, LDH readout; read-out: P. falciparum (D6 Clone) IC50
Procedure: In vitro anti-malarial activity of the representative compounds was determined against chloroquine sensitive (D6) and chloroquine-resistant (W2) strains of P. falciparum.
The anti-malarial activity was determined by measuring plasmodial LDH activity as described earlier (Jain, M.; Khan, S. I.; Tekwani, B. L.; Jacob, M. R.; Singh, S.; Singh, P. P.; Jain, R. Synthesis, anti-malarial, antileishmanial, and antimicrobial activities of some 8-quinolinamine analogues. Bioorg. Med. Chem. 2005, 13, 4458-4466). A suspension of red blood cells infected with D6 or W2 strains of P. falciparum (200 with 2% parasitemia and 2% hematocrit in RPMI 1640 medium supplemented with 10% human serum and 60 µg/mL Amikacin) was added to the wells of a 96-well plate containing 10 μL of serially diluted test samples. The plate was flushed with a gas mixture of 90% N2, 5% O2, and 5% CO2 and incubated at 37° C. for 72 h in a modular incubation chamber (Billups-Rothenberg, Calif.). Parasitic LDH activity was determined by using Malstat™ reagent (Flow Inc., Portland, Oreg.) according to the procedure of Makler and Hinrichs (M. T. Makler and D. J. Hinrichs, Measurement of the lactate dehydrogenase activity of Plasmodium falciparum as an assessment of parasitemia. J. Am. J. Trop. Med. Hyg. 1993, 48(2):205-210). Briefly, 20 μl, of the incubation mixture was mixed with 100 μL of the Malstat™ reagent and incubated at room temperature for 30 min Twenty microliters of a 1:1 mixture of NBT/PES (Sigma, St. Louis, Mo.) was then added and the plate was further incubated in the dark for 1 h. The reaction was then stopped by the addition of 100 μL of a 5% acetic acid solution. The plate was read at 650 nm. Artemisinin and chloroquine were included in each assay as the drug controls. IC50 values were computed from the dose-response curves. To determine the selectivity index of anti-malarial activity of compounds, their cytotoxicity in vitro to mammalian cells was also determined. The assay was performed in 96-well tissue culture-treated plates as described earlier (J. Mustafa, S. I. Khan, G. Ma, L. A. Walker and I. A. Khan, Synthesis and Anticancer Activities of Fatty Acid Analogs of Podophyllotoxin. Lipids. 2004, 39(2):167-172). Vero cells (monkey kidney fibroblasts) were seeded to the wells of 96-well plate at a density of 25,000 cells/well and incubated for 24 h. Samples at different concentrations were added and plates were again incubated for 48 h. The number of viable cells was determined by Neutral Red assay. IC50 values were obtained from dose-response curves. Doxorubicin was used as a positive control.

O=C(/C=C/c1ccc(O)cc1)OC[C@H]1O[C@@H](Oc2c(-c3ccc(O)cc3)oc3cc(O)cc(O)c3c2=O)[C@H](O)[C@@H](O)[C@@H]1O [Tiliroside]
IC50: 123 µM
